Data reported in PMC3292421 (International Journal of Nanomedicine, 2012).
Where two headings read alike, the source gives them in different places.

Assays:
[1] = 25°C
[2] = long-term animal studies; cited from earlier work
P-glycoprotein = conditions: cited from earlier work

Solubility ([1]; in Cremophor EL (surfactant)): 1.305 µmol/g | Solubility ([1]; in Cremophor RH40 (surfactant)): 0.631 µmol/g | Solubility ([1]; in GTCC (caprylic/capric triglyceride, oil)): 0.154 µmol/g | Solubility ([1]; in IPM (isopropyl myristate, oil)): 0.087 µmol/g | Solubility ([1]; in Labrafac Lipophile WL1349 (oil)): 0.159 µmol/g | Solubility ([1]; in Labrafil M2125CS (oil)): 0.338 µmol/g | Solubility ([1]; in Maisine 35-1 (oil)): 0.755 µmol/g | Solubility ([1]; in Olive oil (oil)): 0.145 µmol/g | Solubility ([1]; in PEG 200 (cosurfactant)): 0.093 µmol/g | Solubility ([1]; in PEG 400 (cosurfactant)): 0.143 µmol/g | Solubility ([1]; in Transcutol P (cosurfactant)): 1.356 µmol/g
Compound: O=C1Nc2ccccc2/C1=C1/Nc2ccccc2C1=O [indirubin]
Bone marrow toxicity and hematotoxicity [2]: neither bone marrow toxicity nor hematotoxicity | Influence of P-glycoprotein on transport through the rat intestine membrane (P-glycoprotein): not influenced
